Results from PubChem BioAssay AID330 (DTP/NCI, 2004).
Where “and” joins values, the source holds several entries; their conditions need not be identical. Equal entries are not always repeated. Inconclusive results and toxic doses are left out. Square brackets hold non-standard residues; d marks the D form. Peptide text beside a SMILES is read from it. * marks the point of attachment. ξ: configuration not given here. Cbz = O=C(OCc1ccccc1)*; ξI = CCC(C)C(N)C(=O)O

Test system: P388 leukemia ip, CD2F1 mice, survival T/C
Assay: NCI In Vivo Anticancer Drug Screen. Data for tumor model P388 Leukemia (intraperitoneal) in CD2F1 (CDF1) mice
Conditions: endpoint: median survival time, higher = longer survival
In short: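 Mice carrying the transplanted tumor received test compound or vehicle. Survival was recorded in each group, and the value is the treated-group measurement divided by that of the vehicle-treated control group.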

[1] = dose: 50.0 mg/kg/injection, schedule: Q01DX005 (ip), vehicle: Klucel (hydroxypropylcellulose) (HPC)
[2] = dose: 100.0 mg/kg/injection, schedule: Q01DX005 (ip), vehicle: Klucel (hydroxypropylcellulose) (HPC)
[3] = dose: 200.0 mg/kg/injection, schedule: Q01DX005 (ip), vehicle: Klucel (hydroxypropylcellulose) (HPC)

CCC(C)C(NC(=O)OCc1ccccc1)C(=O)NCC(=O)O (stereo unspecified) (Cbz-[ξI]-Gly-OH)
T/C [1]: 97 % of control | T/C [2]: 97 % of control | T/C [3]: 90 % of control

C=CC1CC[N-]CC1.C=CC1CC[N-]CC1.C=CC1CC[N-]CC1.[Cl][Cr]([Cl])[Cl]
T/C (dose: 12.5 mg/kg/injection, schedule: Q04DX003 (ip), vehicle: saline with Tween-80): 100 % of control | T/C (dose: 25.0 mg/kg/injection, schedule: Q04DX003 (ip), vehicle: saline with Tween-80): 100 % of control | T/C (dose: 50.0 mg/kg/injection, schedule: Q04DX003 (ip), vehicle: saline with Tween-80): 100 % of control

CSc1nc2c(NN)ncnc2s1
T/C (dose: 80.5 mg/kg/injection, schedule: Q01DX001 (ip), vehicle: distilled water + alcohol): 106 % of control | T/C (dose: 161.0 mg/kg/injection, schedule: Q01DX001 (ip), vehicle: distilled water + alcohol): 102 % of control | T/C (dose: 322.0 mg/kg/injection, schedule: Q01DX001 (ip), vehicle: distilled water + alcohol): 102 % of control

O=C(O)/C=C\C(=O)O.OO.[O]=[V]
T/C (dose: 3.75 mg/kg/injection, schedule: Q01DX005 (ip), vehicle: saline with Tween-80): 100 % of control | T/C (dose: 15.0 mg/kg/injection, schedule: Q01DX005 (ip), vehicle: saline with Tween-80): 109 % of control

CCCCn1c(Cl)c(/C=N\Nc2ccccc2[N+](=O)[O-])c2ccccc21
T/C (dose: 100.0 mg/kg/injection, schedule: Q01DX001 (ip), vehicle: saline with Tween-80): 93 % of control | T/C (dose: 200.0 mg/kg/injection, schedule: Q01DX001 (ip), vehicle: saline with Tween-80): 90 % of control | T/C (dose: 400.0 mg/kg/injection, schedule: Q01DX001 (ip), vehicle: saline with Tween-80): 93 % of control

CCOC(=O)Nc1ccc(SCC2COC(Cn3ccnc3)(c3ccc(Cl)cc3Cl)O2)cc1 (stereo unspecified)
T/C (dose: 12.5 mg/kg/injection, schedule: Q01DX001 (ip), vehicle: saline): 104 % of control | T/C (dose: 25.0 mg/kg/injection, schedule: Q01DX001 (ip), vehicle: saline): 107 % of control | T/C (dose: 50.0 mg/kg/injection, schedule: Q01DX001 (ip), vehicle: saline): 110 % of control

CN1CCc2c1cc(-c1ccncc1)c1c2N(C)CC1
T/C [1]: 106 % of control | T/C [2]: 107 % of control | T/C [3]: 107 % of control

COC1(OC)C(=S)N(C2CCCCC2)C(=S)N1C1CCCCC1
T/C [1]: 95 % of control | T/C [2]: 95 % of control | T/C [3]: 96 % of control

O=C(NC(=O)c1ccccc1F)Nc1ccc(C(O)(C(F)(F)F)C(F)(F)F)cc1
T/C (dose: 50.0 mg/kg/injection, schedule: Q01DX005 (ip), vehicle: saline with Tween-80): 104 % of control | T/C (dose: 100.0 mg/kg/injection, schedule: Q01DX005 (ip), vehicle: saline with Tween-80): 98 % of control | T/C (dose: 200.0 mg/kg/injection, schedule: Q01DX005 (ip), vehicle: saline with Tween-80): 100 % of control

C[CH2][Sn]([CH2]C)([O]C(=O)c1ccc2c(c1)OC(C)(C)O2)[O]C(=O)c1ccc2c(c1)OC(C)(C)O2
T/C (dose: 6.25 mg/kg/injection, schedule: Q01DX005 (ip), vehicle: Klucel (hydroxypropylcellulose) (HPC)): 117 % of control | T/C (dose: 12.5 mg/kg/injection, schedule: Q01DX005 (ip), vehicle: Klucel (hydroxypropylcellulose) (HPC)): 116 % of control | T/C (dose: 25.0 mg/kg/injection, schedule: Q01DX005 (ip), vehicle: Klucel (hydroxypropylcellulose) (HPC)): 120 % of control | T/C [1]: 124 % of control

Cc1ccc(Cl)c2ccccc12
T/C (dose: 50.0 mg/kg/injection, schedule: Q01DX009 (ip), vehicle: saline with Tween-80): 113 % of control | T/C (dose: 100.0 mg/kg/injection, schedule: Q01DX009 (ip), vehicle: saline with Tween-80): 108 % of control

CCOC(=O)CCSC(=O)NCCCCCCNC(=O)SCCC(=O)OCC
T/C [1]: 98 % of control | T/C [2]: 96 % of control | T/C [3]: 102 % of control

Cc1cccn2ccnc12
T/C (dose: 25.0 mg/kg/injection, schedule: Q01DX009 (ip), vehicle: saline): 100 % of control and 93 % of control | T/C (dose: 50.0 mg/kg/injection, schedule: Q01DX009 (ip), vehicle: saline): 100 % of control and 96 % of control | T/C (dose: 100.0 mg/kg/injection, schedule: Q01DX009 (ip), vehicle: saline): 120 % of control and 94 % of control

CC1CCN(C)CC1
T/C (dose: 25.0 mg/kg/injection, schedule: Q01DX005 (ip), vehicle: saline): 104 % of control | T/C (dose: 50.0 mg/kg/injection, schedule: Q01DX005 (ip), vehicle: saline): 97 % of control | T/C (dose: 100.0 mg/kg/injection, schedule: Q01DX005 (ip), vehicle: saline): 105 % of control
